The source of these data is US9999614B2, “Combination for the prophylaxis and treatment of behavioural, mental, and cognitive disorders” (LTD “VALENTA-INTELLEKT”, priority 2012, dated 2018).

The assay deals with amnesia in mice, as caused by electroconvulsive shock (ECS). Put plainly: Conditioned passive avoidance reflex (CPAR), amnesia caused by electroconvulsive shock (ECS). The class given is in vivo. The following applies: for Latent time of entering into the dark chamber / Number of mice not entered into the dark chamber, % / Number of mice taught to CPAR: + ECS, i.p. once a day for 5 days, Melatonin 5 mg, Memantin 10 mg mono-use; for Number of mice taught to CPAR: count of mice, human doses converted to mice; for Effect on the amnestic action of ECS (in words): summary of Tables 1-2, p<0.05 for the compositions. As to the method: For this, the active substances Melatonin 3 mg/Memantin 10 mg, Melatonin 5 mg/Memantin 20 mg, Melatonin 10 mg/Memantin 20 mg were taken, and doses recommended for human beings were converted into doses adapted for mice according to the formula “(active substance/70(average weight of a human being))×7”. Then the compositions were dissolved in 5 mL of the solution and, according to the given formula, introduced to animals intraperitoneally once a day for 5 days.
The action of the compositions on learning and memory factors were studied on white non-linear male mice having a weight 20+/−4 g, using the conditioned passive avoidance reflex (CPAR) of electroconvulsive shock (ECS) (Ya. Buresh et al., 1991; K. M. Dyumaev et al., 1995).
Electroconvulsive shock (ECS) was used as the amnesic action, the electric current parameters were: 50 Hz, 50 mA, 0.3 s, which was applied to mice with the use of electrodes in the shape of clips fixed on auricles, transpineally, just after teaching CPAR (see, “Manual for Experimental (Pre-Clinical) Studies of New Pharmacological Substances”, 2000). Pseudo-electroconvulsive shock was caused to the animals by applying pineal electrodes for causing ECS without applying electric current. The mice were tested for maintaining CPAR in certain time intervals after ECS.
The CPAR test is the main model for evaluating substance influences on formation and replication of short-time memory in a normal condition and in an abnormal condition, i.e., induced amnesia. The CPAR is the most informative method among the methods that are used today for evaluating efficiency of substances with influence on the CNS of mammals (see, “Manual for Experimental (Pre-Clinical) Studies of New Pharmacological Substances”, 2000). The CPAR (conditioned passive avoidance reflex in a dark, light chamber) was taught to the mice on the basis of electrodermal response according to the method proposed by Cumin et al. (1982) with due regard to the recommendations given by Mondadori et al. (1990). The installation for mice, as produced by Lafayette Instrument Co., USA, was a black chamber with the electrode floor and a white plastic platform that was arranged on the floor in the center of the chamber. The mice, one by one, were put onto the plastic platform. The animals went/jumped down onto the electrode floor where they received an electric current shock, i.e., punishment. Electric current was supplied after the time when an animal stood on the floor with all its four legs. The natural response of the animals is to go back to the current-free or safe platform. After several minutes of teaching, 5 minutes on the average, mice developed CPAR and remained on the safe platform. Tests for memorizing CPAR were conducted in successive time intervals after amnesic action. In a case where an animal went/jumped down onto the platform within 1 minute, it was recorded as having retrograde amnesia of the passive avoidance skill. The compositions were studied in comparison with Melatonin 5 mg (mono-use) and Memantin 10 mg (mono-use), according to the above formula for adapting to animal models.

Molecules are shown by their SMILES.

Take `COc1ccc2[nH]cc(CCNC(C)=O)c2c1` [Melatonin, N-acetyl-5-methoxytriptamine]: the “Number of mice taught to CPAR” value is 9 and the “Effect on the amnestic action of ECS (in words)” value is given as “changed the amnestic action”. Besides, under “1 day after teaching”, the “Latent time of entering into the dark chamber” value (from here on “Latent time”) is recorded as 108.3 ± 21.7 s and the “Number of mice not entered into the dark chamber, %” value stood at 66.7%. In addition, where the note is “3 days after teaching”, the “Latent time” value is 105.6 ± 17.4 s and the “Number of mice not entered into the dark chamber, %” value was 58.3%. Moreover, for the setting “7 days after teaching”, the “Latent time” value was 103.3 ± 21.2 s and the “Number of mice not entered into the dark chamber, %” value came to 58.3%. Also, where the note is “10 days after teaching”, the “Latent time” value was 103.2 ± 20.6 s and the “Number of mice not entered into the dark chamber, %” value came out at 33.3%.

With `CC12CC3CC(C)(C1)CC(N)(C3)C2` [Memantin], the “Number of mice taught to CPAR” value is 8 and the “Effect on the amnestic action of ECS (in words)” value is “changed the amnestic action”. Under “1 day after teaching”, the “Latent time” value was 104.6 ± 19.2 s and the “Number of mice not entered into the dark chamber, %” value is listed as 36.3%. Also, under “3 days after teaching”, the “Latent time” value worked out at 109.5 ± 22.1 s and the “Number of mice not entered into the dark chamber, %” value came to 54.5%. Besides, for the setting “7 days after teaching”, the “Latent time” value is 110.1 ± 18.9 s and the “Number of mice not entered into the dark chamber, %” value stood at 63.6%. For the setting “10 days after teaching”, the “Latent time” value amounted to 109.8 ± 21.1 s and the “Number of mice not entered into the dark chamber, %” value stood at 63.6%.
